From US20100004234A1, “SPECIFIC KINASE INHIBITORS” (Kosan Biosciences Incorporated, priority 2004, published 2010)

What was measured:
[1] = system: SKOV3 (ovarian cancer cell line, wild-type B-Raf); test: Cell proliferation assay; format: cell-based; settings: Homo sapiens, SK-OV-3, read-out: Cell Line IC50 SKOV3
Protocol: In one illustrative method, cells are treated with various concentrations of the inhibitor in 96 well plates, incubated at 37° C./5% CO2 for three days, and analyzed using the Cell Titer Glo kit (Promega).
COLO829 is a human melanoma cell line. HT29 is a human colon cancer cell line. Both cell lines have a V600E B-Raf mutation. SKOV3 is an ovarian cancer cell line having wild-type B-Raf. EKR2 (extra-cellular signal regulated kinase 2) is a kinase in the Ras/B-Raf MAP kinase cascade pathway.

Flt-1 (VEGFR1) = Flt-1 (VEGFR1) (Homo sapiens, UniProt P17948); test: Time-dependent kinase inhibition kinetics (progress curve); format: biochemical
Protocol: (§1) Typically, one measures the increase in inhibition of protein kinase activity in the presence of inhibitor over time. In one method, aliquots of a “pre-incubation” reaction mixture containing enzyme and inhibitor are assayed for activity (initial velocities) over time; increased inhibition or decreased initial velocities will be observed over time as the Michael adduct forms (Walsh, C, Enzyme Reaction Mechanisms, W.H. Freeman & Co., 1979, pp 86-94). In a second method, the time dependent loss of activity is measured as “progress curves” that measure and analyze product formed (e.g. ADP) versus time (Morrison & Walsh, Adv. Enzymol Relat Areas Mol. Biol. 1988, 61, 201-301). In either case, the time dependent inactivation can be dampened by the presence of a competing substrate, in this case ATP.
(§2) For covalent inhibitors, plots of log (activity) versus time provide apparent first-order rate constants (kobsd) of enzyme activity loss. If these assays are performed at varying concentrations of inhibitor, a series of first-order plots is obtained and kobsd obtained at each inhibitor concentration. To measure time-dependent inhibition using the “progress-curve method” (see references cited above and Kuzmic et al., Methods Enzymol 2004; 383: 366-81), ERK (or other kinase) is treated with varying amounts of the lactone inhibitor, and the formation of ADP is measured continuously by a coupled assay. […] Such molecules may be competitive inhibitors but should not show time-dependent inactivation.
(§3) Those of skill in the art will recognize that within the set of compounds useful in the methods of the invention, significant variability in specificity can be achieved, allowing one to identify optimal compounds for different applications. Inhibition progress curve analysis was performed using continuous, colorimetric, or fluorimetric assays. All experiments were done at 1 mM ATP, with the exception of KDR (at 5 mM ATP).
(§4) MEK1 assays were performed using pre-incubation experiments with radioactive [^32P]ATP and filter binding of product. All other kinases were analyzed using progress curve analysis from a continuous spectrophotometric assay.

Flt-3 = target: T1, Flt-3 (Homo sapiens, UniProt P36888); test: as above; format: biochemical
T1 sequence (P36888 27-993): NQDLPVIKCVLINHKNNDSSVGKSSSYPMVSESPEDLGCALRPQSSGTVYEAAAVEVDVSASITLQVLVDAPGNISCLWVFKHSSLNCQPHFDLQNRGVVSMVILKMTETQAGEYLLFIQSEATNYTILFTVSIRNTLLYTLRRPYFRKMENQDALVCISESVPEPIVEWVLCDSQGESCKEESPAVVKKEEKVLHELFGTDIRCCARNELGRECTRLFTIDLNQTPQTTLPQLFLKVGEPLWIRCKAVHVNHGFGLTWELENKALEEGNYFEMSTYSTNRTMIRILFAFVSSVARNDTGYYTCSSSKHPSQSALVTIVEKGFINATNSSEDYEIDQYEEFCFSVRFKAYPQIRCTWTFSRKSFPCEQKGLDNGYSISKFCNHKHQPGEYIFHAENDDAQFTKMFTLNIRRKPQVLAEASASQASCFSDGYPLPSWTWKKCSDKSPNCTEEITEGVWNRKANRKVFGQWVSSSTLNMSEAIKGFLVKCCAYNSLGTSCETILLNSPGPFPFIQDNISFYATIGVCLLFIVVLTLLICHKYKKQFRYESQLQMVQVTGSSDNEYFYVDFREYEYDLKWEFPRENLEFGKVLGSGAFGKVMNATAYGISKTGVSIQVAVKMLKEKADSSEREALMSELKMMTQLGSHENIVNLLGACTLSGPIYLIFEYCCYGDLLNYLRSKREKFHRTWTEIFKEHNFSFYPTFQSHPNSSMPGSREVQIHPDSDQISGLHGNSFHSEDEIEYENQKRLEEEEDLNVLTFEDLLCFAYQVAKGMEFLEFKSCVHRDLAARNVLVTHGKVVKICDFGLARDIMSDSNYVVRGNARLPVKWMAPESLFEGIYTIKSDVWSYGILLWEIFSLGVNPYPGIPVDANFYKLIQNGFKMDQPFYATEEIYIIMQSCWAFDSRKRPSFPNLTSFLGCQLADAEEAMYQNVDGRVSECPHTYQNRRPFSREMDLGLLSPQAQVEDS
Protocol: as §1, §2, §3, §4

GSK3α = GSK3α (Homo sapiens, UniProt P49840); test: as above; format: biochemical
Protocol: as §1, §2, §3, §4

GSK3β = GSK3β (Homo sapiens, UniProt P49841); test: as above; format: biochemical
Protocol: as §1, §2, §3, §4

KDR (VEGFR2) = KDR (VEGFR2) (Homo sapiens, UniProt P35968); test: as above; format: biochemical
Protocol: as §1, §2, §3, §4

PDGFRα = PDGFRα (Homo sapiens, UniProt P16234); test: as above; format: biochemical
Protocol: as §1, §2, §3, §4

PDGFRβ = PDGFRβ (Homo sapiens, UniProt P09619); test: as above; format: biochemical
Protocol: as §1, §2, §3, §4

TrkA = TrkA (Homo sapiens, UniProt P04629); test: as above; format: biochemical
Protocol: as §1, §2, §3, §4

TrkB = TrkB (Homo sapiens, UniProt Q16620); test: as above; format: biochemical
Protocol: as §1, §2, §3, §4

PDGFRβ, sequence (P09619 33-1106): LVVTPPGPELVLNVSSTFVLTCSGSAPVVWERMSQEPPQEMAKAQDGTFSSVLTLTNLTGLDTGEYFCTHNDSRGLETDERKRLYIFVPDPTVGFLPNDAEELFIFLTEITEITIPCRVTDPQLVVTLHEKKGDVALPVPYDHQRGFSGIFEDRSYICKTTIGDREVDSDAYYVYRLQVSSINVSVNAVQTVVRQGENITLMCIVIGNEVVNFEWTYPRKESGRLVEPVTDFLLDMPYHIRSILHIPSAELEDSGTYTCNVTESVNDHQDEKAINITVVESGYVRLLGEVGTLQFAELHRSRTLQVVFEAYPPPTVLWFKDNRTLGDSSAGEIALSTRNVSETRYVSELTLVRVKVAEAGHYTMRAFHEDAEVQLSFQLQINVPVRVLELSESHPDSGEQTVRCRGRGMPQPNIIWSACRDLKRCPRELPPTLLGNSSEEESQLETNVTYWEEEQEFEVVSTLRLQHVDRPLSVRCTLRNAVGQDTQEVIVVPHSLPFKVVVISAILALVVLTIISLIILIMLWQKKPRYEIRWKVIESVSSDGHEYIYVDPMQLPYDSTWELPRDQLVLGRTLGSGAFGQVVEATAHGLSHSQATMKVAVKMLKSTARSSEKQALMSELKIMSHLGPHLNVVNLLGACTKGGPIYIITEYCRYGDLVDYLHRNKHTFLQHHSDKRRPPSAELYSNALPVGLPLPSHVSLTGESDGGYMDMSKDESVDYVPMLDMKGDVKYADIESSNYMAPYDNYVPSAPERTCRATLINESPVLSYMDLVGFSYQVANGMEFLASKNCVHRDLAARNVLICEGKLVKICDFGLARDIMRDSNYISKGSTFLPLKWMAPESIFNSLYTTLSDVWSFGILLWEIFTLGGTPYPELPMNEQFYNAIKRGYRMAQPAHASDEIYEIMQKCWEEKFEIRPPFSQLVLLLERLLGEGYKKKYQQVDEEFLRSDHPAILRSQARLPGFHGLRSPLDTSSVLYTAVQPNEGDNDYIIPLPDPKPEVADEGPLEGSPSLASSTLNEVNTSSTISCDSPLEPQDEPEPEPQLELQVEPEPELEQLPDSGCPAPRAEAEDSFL
PDGFRα, sequence (P16234 24-1089): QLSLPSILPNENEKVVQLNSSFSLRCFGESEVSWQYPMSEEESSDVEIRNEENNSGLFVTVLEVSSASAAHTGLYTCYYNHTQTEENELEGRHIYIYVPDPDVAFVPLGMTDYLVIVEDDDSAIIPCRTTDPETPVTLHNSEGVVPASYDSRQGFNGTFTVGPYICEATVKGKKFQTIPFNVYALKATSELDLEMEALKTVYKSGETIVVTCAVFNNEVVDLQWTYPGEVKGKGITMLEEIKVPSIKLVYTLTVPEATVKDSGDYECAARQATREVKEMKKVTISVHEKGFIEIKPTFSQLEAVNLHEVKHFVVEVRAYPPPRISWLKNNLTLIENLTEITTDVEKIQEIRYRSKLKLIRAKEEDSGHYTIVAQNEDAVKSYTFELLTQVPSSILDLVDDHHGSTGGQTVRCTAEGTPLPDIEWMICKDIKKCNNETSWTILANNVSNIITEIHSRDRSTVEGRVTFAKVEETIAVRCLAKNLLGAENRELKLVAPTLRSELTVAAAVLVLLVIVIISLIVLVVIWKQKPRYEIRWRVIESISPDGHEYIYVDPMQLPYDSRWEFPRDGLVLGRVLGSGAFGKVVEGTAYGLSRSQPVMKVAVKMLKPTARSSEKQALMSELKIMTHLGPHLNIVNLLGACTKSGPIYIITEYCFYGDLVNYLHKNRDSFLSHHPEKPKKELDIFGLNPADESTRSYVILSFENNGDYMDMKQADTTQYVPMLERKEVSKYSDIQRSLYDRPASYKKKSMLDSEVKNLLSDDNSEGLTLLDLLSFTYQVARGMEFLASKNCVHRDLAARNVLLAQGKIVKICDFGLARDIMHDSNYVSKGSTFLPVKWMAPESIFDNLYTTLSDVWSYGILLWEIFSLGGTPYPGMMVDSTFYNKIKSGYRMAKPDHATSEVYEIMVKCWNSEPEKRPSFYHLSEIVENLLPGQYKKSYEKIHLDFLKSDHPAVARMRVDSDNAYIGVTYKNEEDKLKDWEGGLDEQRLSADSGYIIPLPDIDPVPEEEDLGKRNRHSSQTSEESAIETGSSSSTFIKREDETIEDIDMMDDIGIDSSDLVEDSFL
TrkA, sequence (P04629 33-796): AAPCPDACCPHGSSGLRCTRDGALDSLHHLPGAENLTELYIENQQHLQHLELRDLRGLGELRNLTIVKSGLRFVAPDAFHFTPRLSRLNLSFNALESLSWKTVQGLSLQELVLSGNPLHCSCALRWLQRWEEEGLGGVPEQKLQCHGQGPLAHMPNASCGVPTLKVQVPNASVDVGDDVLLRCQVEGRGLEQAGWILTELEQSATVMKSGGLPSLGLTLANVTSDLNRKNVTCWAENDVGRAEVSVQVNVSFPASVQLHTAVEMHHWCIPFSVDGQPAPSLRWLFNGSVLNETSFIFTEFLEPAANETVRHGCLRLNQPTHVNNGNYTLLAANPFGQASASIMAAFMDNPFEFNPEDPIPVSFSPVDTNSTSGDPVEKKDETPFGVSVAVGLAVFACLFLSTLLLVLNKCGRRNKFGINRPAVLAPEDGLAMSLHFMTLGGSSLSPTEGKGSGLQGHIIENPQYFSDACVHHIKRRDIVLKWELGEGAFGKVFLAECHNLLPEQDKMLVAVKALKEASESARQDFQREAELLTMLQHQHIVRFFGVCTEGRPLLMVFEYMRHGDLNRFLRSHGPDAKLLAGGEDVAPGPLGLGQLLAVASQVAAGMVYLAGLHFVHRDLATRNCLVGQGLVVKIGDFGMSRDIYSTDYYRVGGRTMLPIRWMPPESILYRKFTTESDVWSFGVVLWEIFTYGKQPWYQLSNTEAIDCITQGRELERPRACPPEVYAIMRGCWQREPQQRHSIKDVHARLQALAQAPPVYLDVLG
TrkB, sequence (Q16620 32-822): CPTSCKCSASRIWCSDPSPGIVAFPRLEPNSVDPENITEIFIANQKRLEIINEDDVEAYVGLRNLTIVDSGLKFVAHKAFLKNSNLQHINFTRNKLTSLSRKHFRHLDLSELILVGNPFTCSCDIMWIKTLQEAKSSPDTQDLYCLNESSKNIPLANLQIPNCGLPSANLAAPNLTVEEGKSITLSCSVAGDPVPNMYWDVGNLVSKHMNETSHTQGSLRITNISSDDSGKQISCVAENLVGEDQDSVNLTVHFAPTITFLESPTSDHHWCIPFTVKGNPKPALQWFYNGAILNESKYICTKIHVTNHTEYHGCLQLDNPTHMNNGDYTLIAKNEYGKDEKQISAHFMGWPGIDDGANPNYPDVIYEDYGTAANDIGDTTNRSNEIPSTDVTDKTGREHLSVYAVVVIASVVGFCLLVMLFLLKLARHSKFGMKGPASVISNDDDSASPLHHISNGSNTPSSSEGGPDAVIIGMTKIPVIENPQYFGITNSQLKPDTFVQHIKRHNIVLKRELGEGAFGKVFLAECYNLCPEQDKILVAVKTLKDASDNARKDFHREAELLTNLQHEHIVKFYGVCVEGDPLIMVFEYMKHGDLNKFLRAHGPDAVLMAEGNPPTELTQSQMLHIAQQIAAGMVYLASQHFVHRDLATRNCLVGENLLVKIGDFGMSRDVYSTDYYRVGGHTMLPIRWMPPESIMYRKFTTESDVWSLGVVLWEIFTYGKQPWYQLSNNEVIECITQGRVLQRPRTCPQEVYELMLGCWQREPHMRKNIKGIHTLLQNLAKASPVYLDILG
GSK3β, sequence (P49841 whole entry): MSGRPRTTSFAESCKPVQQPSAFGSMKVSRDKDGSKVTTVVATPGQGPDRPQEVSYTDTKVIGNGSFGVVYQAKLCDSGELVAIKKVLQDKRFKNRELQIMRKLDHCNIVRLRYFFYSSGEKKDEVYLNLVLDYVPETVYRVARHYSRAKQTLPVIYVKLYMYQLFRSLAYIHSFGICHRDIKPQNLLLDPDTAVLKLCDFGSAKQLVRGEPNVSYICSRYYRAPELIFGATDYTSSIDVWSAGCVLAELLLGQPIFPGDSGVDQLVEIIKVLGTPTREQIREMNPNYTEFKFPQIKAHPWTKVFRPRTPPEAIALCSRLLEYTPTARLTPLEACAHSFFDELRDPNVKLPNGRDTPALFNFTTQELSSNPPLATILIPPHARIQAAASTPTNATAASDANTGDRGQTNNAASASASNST
GSK3α, sequence (P49840 whole entry): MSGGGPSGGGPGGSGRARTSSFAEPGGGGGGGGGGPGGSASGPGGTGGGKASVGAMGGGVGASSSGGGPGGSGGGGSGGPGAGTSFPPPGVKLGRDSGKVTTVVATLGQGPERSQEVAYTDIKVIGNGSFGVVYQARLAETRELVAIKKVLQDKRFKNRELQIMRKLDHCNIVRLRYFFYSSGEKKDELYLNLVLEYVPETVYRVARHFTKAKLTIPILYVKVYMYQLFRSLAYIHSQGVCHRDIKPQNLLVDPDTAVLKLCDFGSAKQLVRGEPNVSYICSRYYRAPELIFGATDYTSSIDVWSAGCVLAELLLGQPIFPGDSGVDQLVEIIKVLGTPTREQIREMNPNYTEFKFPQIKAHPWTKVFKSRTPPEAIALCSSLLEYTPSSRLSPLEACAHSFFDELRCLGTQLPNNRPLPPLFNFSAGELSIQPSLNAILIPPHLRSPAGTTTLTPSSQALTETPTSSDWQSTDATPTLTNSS

SMILES: COc1cc(O)c2c(c1)[C@H]1O[C@@H]1C[C@H](O)[C@H](O)C(=O)/C=C\C[C@H](C)OC2=O [Hypothemycin, hypothemycin]
- IC50 [1]: ~4 µM
- kinact/KI (Flt-1 (VEGFR1)): 160000 M⁻¹ s⁻¹
- kinact (Flt-1 (VEGFR1); 1 mM ATP): 0.018 s⁻¹
- Ki (Flt-1 (VEGFR1); 1 mM ATP, significant decrease of enzyme activity over time without inhibitor): 0.11 µM
- kinact/KI (Flt-3): 47000 M⁻¹ s⁻¹
- Ki (Flt-3; 1 mM ATP): 0.15 µM
- kinact (Flt-3; 1 mM ATP): 0.007 s⁻¹
- Ki (GSK3α): > 630 µM
- Ki (GSK3β): 370 µM
- kinact/KI (GSK3β; GSK3β): 5.4 M⁻¹ s⁻¹
- kinact (GSK3β; GSK3β, 1 mM ATP): 0.002 s⁻¹
- Ki (KDR (VEGFR2); KDR): 0.01 µM
- kinact/KI (KDR (VEGFR2); KDR): 500000 M⁻¹ s⁻¹
- kinact/Ki (KDR (VEGFR2); KDR (VEGFR2)): 500000 M⁻¹ s⁻¹
- Ki (KDR (VEGFR2); KDR (VEGFR2), 5 mM ATP): 0.014 µM
- kinact (KDR (VEGFR2); KDR (VEGFR2), 5 mM ATP): 0.007 s⁻¹
- KDR activity inhibited (KDR (VEGFR2); calculated for 0.1 μM for ~10 minutes): > 98%
- kinact/KI (PDGFRα): 1300 M⁻¹ s⁻¹
- Ki (PDGFRα; 1 mM ATP): 1.5 µM
- kinact (PDGFRα; 1 mM ATP): 0.002 s⁻¹
- kinact/KI (PDGFRβ): 2500 M⁻¹ s⁻¹
- Ki (PDGFRβ; 1 mM ATP): 1.2 µM
- kinact (PDGFRβ; 1 mM ATP): 0.003 s⁻¹
- Ki (TrkA; TRKA, reversible inhibition competitive with ATP): 2.2 µM
- kinact/Ki (TrkA; TrkA): None
- time-dependent inactivation (covalent bond formation) (TrkA; TrkA): did not show time-dependent inactivation
- kinact (TrkA; TrkA, 1 mM ATP): None
- Ki (TrkB; TRKB, reversible inhibition competitive with ATP): 0.37 µM
- kinact/Ki (TrkB; TrkB): None
- time-dependent inactivation (covalent bond formation) (TrkB; TrkB): did not show time-dependent inactivation
- kinact (TrkB; TrkB, 1 mM ATP): None
